Key:
[1] = biological target: T1, BCRP (Homo sapiens, UniProt Q9UNQ0); experiment: In vitro inhibition of BCRP; format: in vitro ADME; settings: did not inhibit
T1 sequence (Q9UNQ0 1-655): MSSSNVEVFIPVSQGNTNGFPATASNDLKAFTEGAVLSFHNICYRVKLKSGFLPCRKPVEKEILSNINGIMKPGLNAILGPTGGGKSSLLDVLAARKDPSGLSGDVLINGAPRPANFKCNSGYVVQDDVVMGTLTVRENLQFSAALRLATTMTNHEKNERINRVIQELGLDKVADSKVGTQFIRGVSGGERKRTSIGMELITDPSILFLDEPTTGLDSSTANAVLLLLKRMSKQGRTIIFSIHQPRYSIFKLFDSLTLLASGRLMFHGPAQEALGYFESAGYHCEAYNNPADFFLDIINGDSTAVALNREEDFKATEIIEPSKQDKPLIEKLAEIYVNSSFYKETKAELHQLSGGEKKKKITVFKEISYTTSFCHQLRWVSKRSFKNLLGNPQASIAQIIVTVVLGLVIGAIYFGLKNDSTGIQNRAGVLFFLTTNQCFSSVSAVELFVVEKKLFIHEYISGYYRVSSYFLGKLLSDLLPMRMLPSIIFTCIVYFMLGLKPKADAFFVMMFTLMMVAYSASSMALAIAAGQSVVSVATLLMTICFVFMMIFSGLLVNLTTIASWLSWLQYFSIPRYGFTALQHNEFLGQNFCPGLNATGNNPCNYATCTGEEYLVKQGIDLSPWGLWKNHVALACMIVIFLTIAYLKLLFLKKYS

[2] = biological target: bile salt export pump (BSEP) (Homo sapiens, UniProt O95342); experiment: In vitro inhibition of BSEP; format: in vitro ADME; settings: did not inhibit
Chain of bile salt export pump (BSEP) (O95342 whole entry): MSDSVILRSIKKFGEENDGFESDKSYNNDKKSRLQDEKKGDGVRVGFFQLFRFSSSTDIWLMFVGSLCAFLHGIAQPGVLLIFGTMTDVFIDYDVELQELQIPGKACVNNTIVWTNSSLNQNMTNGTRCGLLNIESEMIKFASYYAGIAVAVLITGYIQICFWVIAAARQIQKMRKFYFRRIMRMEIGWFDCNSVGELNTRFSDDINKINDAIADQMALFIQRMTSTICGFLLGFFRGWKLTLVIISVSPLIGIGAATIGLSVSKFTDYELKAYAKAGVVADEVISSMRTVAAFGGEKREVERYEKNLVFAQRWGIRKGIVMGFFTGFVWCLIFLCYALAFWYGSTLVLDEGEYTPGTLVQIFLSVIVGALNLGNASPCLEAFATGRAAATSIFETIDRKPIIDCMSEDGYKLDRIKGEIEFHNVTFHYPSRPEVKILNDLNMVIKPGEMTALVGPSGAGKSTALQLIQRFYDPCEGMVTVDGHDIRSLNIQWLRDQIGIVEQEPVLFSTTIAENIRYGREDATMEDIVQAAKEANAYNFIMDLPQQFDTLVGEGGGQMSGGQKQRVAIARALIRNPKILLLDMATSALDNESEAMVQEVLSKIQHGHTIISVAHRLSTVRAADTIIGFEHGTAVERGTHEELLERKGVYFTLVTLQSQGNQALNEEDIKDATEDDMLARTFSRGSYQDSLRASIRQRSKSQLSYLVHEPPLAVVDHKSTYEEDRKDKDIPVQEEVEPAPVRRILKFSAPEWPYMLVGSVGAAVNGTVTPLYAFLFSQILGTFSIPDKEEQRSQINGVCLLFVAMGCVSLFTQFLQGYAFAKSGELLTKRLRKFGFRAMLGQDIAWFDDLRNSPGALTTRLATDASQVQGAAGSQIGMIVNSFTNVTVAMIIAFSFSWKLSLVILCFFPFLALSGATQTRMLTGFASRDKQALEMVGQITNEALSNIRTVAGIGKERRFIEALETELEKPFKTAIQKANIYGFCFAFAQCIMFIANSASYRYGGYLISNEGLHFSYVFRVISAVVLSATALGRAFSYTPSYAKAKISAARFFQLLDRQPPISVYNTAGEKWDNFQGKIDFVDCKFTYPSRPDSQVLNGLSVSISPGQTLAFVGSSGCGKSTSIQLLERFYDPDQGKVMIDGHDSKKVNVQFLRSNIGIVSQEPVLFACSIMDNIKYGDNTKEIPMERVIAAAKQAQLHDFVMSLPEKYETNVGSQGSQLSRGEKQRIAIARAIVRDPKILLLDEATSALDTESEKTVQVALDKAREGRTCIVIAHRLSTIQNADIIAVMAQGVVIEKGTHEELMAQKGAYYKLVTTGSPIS

C[C@@H]1CCO[C@H]2Cn3cc(C(=O)NCc4ccc(F)cc4F)c(=O)c(O)c3C(=O)N12 [Dolutegravir, dolutegravir]
IC50 [1]: > 50 µM | IC50 [2]: > 50 µM

Source: patent publication US20220096487A1 (priority 2019, published 2022)
